Some test systems named below: TK-10 renal; NCI/ADR-RES ovarian; HL-60(TB) leukemia; SK-MEL-5 melanoma; MDA-MB-435; OVCAR-8 ovarian; PC-3 prostate; OVCAR-3 ovarian; HCT-116 colon; SK-MEL-28 melanoma.
Assay in all cases: DTP human tumour cell line panel, 48 h

Where “and” joins values, the source holds several entries; their conditions need not be identical. Equal values may be shown once.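 Five concentrations, 48 hours, 96-well plates. GI50 marks 50% less growth. TGI denotes the concentration required for complete inhibition of growth.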

As usually defined, the GI50 is the concentration giving 50% growth inhibition. As usually defined, the TGI is the concentration giving total growth inhibition. The low end stands for more potent growth arrest, the high end for less potent growth arrest. Turning to `Oc1c(CN2CCCCC2)ccc2cccnc12`, the GI50 with TK-10 renal is 3.98 µM; with NCI/ADR-RES ovarian, 0.955 µM; in the assay on HL-60(TB) leukemia it was 3.34 µM; in the assay with SK-MEL-5 melanoma, 3.56 µM; with MDA-MB-435 it was 4.65 µM; in the assay with OVCAR-8 ovarian it was 3.18 µM. Besides, the GI50 with PC-3 prostate was 7.12 µM; with OVCAR-3 ovarian, 2.41 µM; in the assay with HCT-116 colon, 2.73 µM; with SK-MEL-28 melanoma it was 9.23 µM. Moreover, the TGI in the assay on TK-10 renal is 42.9 µM; in the assay on NCI/ADR-RES ovarian it was 10.9 µM; in the assay on HL-60(TB) leukemia it was 12.8 µM; in the assay with SK-MEL-5 melanoma, 42.6 µM; with MDA-MB-435 it was 21.4 µM; in the assay with OVCAR-8 ovarian, 22.8 µM. Also, the total growth inhibition concentration (TGI) is more than 100 µM in the assay on PC-3 prostate, 8.22 µM in the assay with OVCAR-3 ovarian, 9.18 µM in the assay on HCT-116 colon and more than 100 µM with SK-MEL-28 melanoma.
As to `COc1ccc2c(c1)/C(=C\c1c(-c3ccccc3)nc3sccn13)C(=O)N2`, the GI50 with TK-10 renal was more than 23.4 µM; in the assay with NCI/ADR-RES ovarian, 1.09 µM; in the assay on HL-60(TB) leukemia, 5.09 µM; in the assay on SK-MEL-5 melanoma it was 6.06 µM; with MDA-MB-435, 0.04 µM; in the assay on OVCAR-8 ovarian, 20.9 µM. For the same compound, the GI50 was 9.55 µM in the assay with PC-3 prostate, 0.122 µM in the assay with OVCAR-3 ovarian, 1.43 µM in the assay with HCT-116 colon and 2.61 µM with SK-MEL-28 melanoma. The TGI is more than 72.9 µM in the assay on TK-10 renal; 3.27 µM in the assay with NCI/ADR-RES ovarian; more than 35.6 µM with HL-60(TB) leukemia; 21.3 µM with SK-MEL-5 melanoma; 0.287 µM in the assay on MDA-MB-435; more than 72.2 µM in the assay with OVCAR-8 ovarian. Besides, the concentration for total growth inhibition (TGI) with PC-3 prostate was more than 35.6 µM; in the assay on OVCAR-3 ovarian, 0.444 µM; in the assay with HCT-116 colon, 8.19 µM; in the assay on SK-MEL-28 melanoma, 21.9 µM.
As for `OCC#Cc1ccccc1C#Cc1ccc(C#Cc2ccccc2C#CCO)cc1`, the GI50 was 52.8 µM in the assay with TK-10 renal; 55.2 µM in the assay on NCI/ADR-RES ovarian; 90.5 µM in the assay with HL-60(TB) leukemia; 23.7 µM in the assay with SK-MEL-5 melanoma; more than 100 µM in the assay on MDA-MB-435; 79.1 µM in the assay with OVCAR-8 ovarian. For the same compound, the GI50 in the assay with PC-3 prostate was 30.7 µM; in the assay with OVCAR-3 ovarian, 20 µM; in the assay with HCT-116 colon, 25.8 µM; in the assay with SK-MEL-28 melanoma it was more than 100 µM. Moreover, the total growth inhibition concentration (TGI) in the assay on TK-10 renal was more than 100 µM; with NCI/ADR-RES ovarian, more than 100 µM; with HL-60(TB) leukemia, more than 100 µM; with SK-MEL-5 melanoma it was 59.3 µM; with MDA-MB-435, more than 100 µM; in the assay with OVCAR-8 ovarian, more than 100 µM. Also, the concentration for total growth inhibition (TGI) is more than 100 µM with PC-3 prostate, 56.6 µM with OVCAR-3 ovarian, 66.7 µM in the assay with HCT-116 colon and more than 100 µM in the assay with SK-MEL-28 melanoma.
As to `C[C@]1(c2nc3c(C(N)=O)cccc3[nH]2)CCCN1`, the GI50 in the assay with TK-10 renal was more than 100 µM; with NCI/ADR-RES ovarian, more than 100 µM; in the assay with HL-60(TB) leukemia, 66.1 µM and > 100 µM; with SK-MEL-5 melanoma, > 76.4 µM and 98.5 µM; in the assay with MDA-MB-435 it was more than 100 µM; in the assay with OVCAR-8 ovarian it was 69.5 µM and 99.8 µM. The GI50 in the assay with PC-3 prostate was more than 100 µM; in the assay on OVCAR-3 ovarian, 53.6 µM and > 100 µM; in the assay on HCT-116 colon it was 48.2 µM and 65.7 µM; in the assay with SK-MEL-28 melanoma it was 75.1 µM and > 100 µM. Moreover, the TGI in the assay with TK-10 renal, in the assay on NCI/ADR-RES ovarian, in the assay on HL-60(TB) leukemia, with SK-MEL-5 melanoma, in the assay on MDA-MB-435 and with OVCAR-8 ovarian was more than 100 µM in each case. Moreover, the TGI in the assay on PC-3 prostate, in the assay with OVCAR-3 ovarian, in the assay on HCT-116 colon and in the assay with SK-MEL-28 melanoma was more than 100 µM in each case.
Turning to `CC(C)(C)c1cc[n+](C[n+]2ccc(C(C)(C)C)cc2)cc1`, the TGI in the assay on TK-10 renal, with NCI/ADR-RES ovarian, in the assay with HL-60(TB) leukemia, in the assay on SK-MEL-5 melanoma, in the assay with MDA-MB-435 and in the assay on OVCAR-8 ovarian was more than 100 µM throughout. Further, the TGI in the assay on PC-3 prostate, with OVCAR-3 ovarian, with HCT-116 colon and in the assay on SK-MEL-28 melanoma was more than 100 µM each time.
As to `COc1ccc(NC(=O)c2ccc(C(F)(F)F)nc2Nc2ccc(Cl)cc2C)cc1Cl`, the GI50 was 17.3 µM in the assay with TK-10 renal; 3.17 µM in the assay with NCI/ADR-RES ovarian; 2.4 µM with HL-60(TB) leukemia; 4.09 µM in the assay on SK-MEL-5 melanoma; 7.99 µM with MDA-MB-435; 7.67 µM in the assay on OVCAR-8 ovarian. Moreover, the GI50 is 3.53 µM in the assay on PC-3 prostate, 3.15 µM in the assay with OVCAR-3 ovarian, 3.08 µM with HCT-116 colon and 5.2 µM with SK-MEL-28 melanoma. Further, the TGI in the assay with TK-10 renal amounted to 41.6 µM; in the assay with NCI/ADR-RES ovarian, 14.9 µM; in the assay with HL-60(TB) leukemia it was 5.37 µM; with SK-MEL-5 melanoma it was 18.7 µM; with MDA-MB-435, 25.9 µM; in the assay on OVCAR-8 ovarian, 24.3 µM. The total growth inhibition concentration (TGI) in the assay with PC-3 prostate came out at 12.1 µM; with OVCAR-3 ovarian, 16.2 µM; with HCT-116 colon it was 13.1 µM; in the assay on SK-MEL-28 melanoma it was 16.9 µM.
As for `O=C1CC=C2C3CC4N(CCC45c4ccccc4N1C25)C/C3=C\CO` (stereo not drawn), the TGI in the assay on TK-10 renal, in the assay with NCI/ADR-RES ovarian, in the assay on HL-60(TB) leukemia, in the assay with SK-MEL-5 melanoma, in the assay on MDA-MB-435 and in the assay with OVCAR-8 ovarian was more than 100 µM throughout. In addition, the TGI in the assay with PC-3 prostate, with OVCAR-3 ovarian, in the assay on HCT-116 colon and in the assay with SK-MEL-28 melanoma was more than 100 µM throughout.
In the case of `Oc1cccc2ccc(SSc3ccc4cccc(O)c4n3)nc12`, the TGI with TK-10 renal is 41.3 µM; in the assay with NCI/ADR-RES ovarian, 65.6 µM; in the assay on HL-60(TB) leukemia, 56.7 µM; with SK-MEL-5 melanoma it was more than 100 µM; in the assay with MDA-MB-435 it was 37.5 µM; in the assay with OVCAR-8 ovarian it was 36.3 µM. In addition, the total growth inhibition concentration (TGI) in the assay with PC-3 prostate was 29.9 µM; with OVCAR-3 ovarian, 34.7 µM; with HCT-116 colon, 41.1 µM; in the assay with SK-MEL-28 melanoma, 41.3 µM.
In the case of `COC(=O)[C@@H](C)C[C@H](Cc1ccccc1)NC(=O)c1csc([C@@H](C[C@H](C(C)C)N(C)C(=O)[C@@H](NC(=O)[C@H]2CCCCN2C)c2ccc(F)cc2)OC(C)=O)n1`, the total growth inhibition concentration (TGI) in the assay with TK-10 renal is 25 µM and > 100 µM; in the assay with NCI/ADR-RES ovarian, 25 µM and > 100 µM; in the assay with MDA-MB-435, 0.00514 µM and 0.0274 µM; with OVCAR-8 ovarian, 25 µM and > 100 µM; in the assay with PC-3 prostate, 25 µM and 28.3 µM; in the assay on OVCAR-3 ovarian, 0.0157 µM and 0.129 µM. Also, the TGI in the assay with HCT-116 colon was 25 µM and > 100 µM; in the assay on SK-MEL-28 melanoma, more than 100 µM. For the same compound, the GI50 is 1.81 µM and 3.8 µM in the assay with NCI/ADR-RES ovarian; 0.00219 µM in the assay on HL-60(TB) leukemia; 0.00535 µM and 0.0025 µM and 0.0101 µM with SK-MEL-5 melanoma; 0.00081 µM in the assay on MDA-MB-435; 0.00309 µM and 0.0103 µM in the assay with OVCAR-3 ovarian.
